Measured values: patent US12084472B2 (Ardelyx, Inc., priority 2015, dated 2024)

biological target: T1, human TGR5 (Homo sapiens, UniProt Q8TDU6); assay: Cell-based TGR5 assay (cAMP generation, HTRF); settings: HEK293 cells stably transfected with human TGR5; cAMP by HTRF; 30 minutes at 37° C.; read-out: pEC50 Human TGR5 (converted)
T1 construct: expressed in transfected cells; host or cells: HEK293
T1 sequence (Q8TDU6 1-330): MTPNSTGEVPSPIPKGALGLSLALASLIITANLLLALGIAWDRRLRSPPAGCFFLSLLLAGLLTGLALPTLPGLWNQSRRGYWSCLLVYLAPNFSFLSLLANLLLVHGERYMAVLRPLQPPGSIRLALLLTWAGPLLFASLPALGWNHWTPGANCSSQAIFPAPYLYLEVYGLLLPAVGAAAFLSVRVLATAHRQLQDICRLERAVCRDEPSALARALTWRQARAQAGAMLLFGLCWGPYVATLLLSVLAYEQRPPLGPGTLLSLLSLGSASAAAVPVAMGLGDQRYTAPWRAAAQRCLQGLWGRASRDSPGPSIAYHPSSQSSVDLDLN
Summary of the method: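 Read-out was HTRF detection of cAMP, converted to concentration via a standard curve and fitted (3-parameter logistic) for pEC50 and maximal response. Agonist stimulation used HEK293 cells stably transfected with human TGR5, incubated 30 min at 37° C in IBMX-containing buffer at 0.05 nM to 10 μM compound.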

Row | EC50 | Compound
1 | 126 to 1000 nM | CN1C[C@@H]2C[C@H]1CN2S(=O)(=O)c1ccc(Cl)c(COC2(c3cnccc3-c3ccccc3OC3CC3)CC2)c1 [Compound I-777, (1S,4S)-2-((4-chloro-3-((1-(4-(2-cyclopropoxyphenyl)pyridin-3-yl)cyclopropoxy)methyl)phenyl)sulfonyl)-5-methyl-2,5-diazabicyclo[2.2.1]heptane]
2 | 126 to 1000 nM | COc1ccccc1-c1ccncc1C1(NCc2cc(Cl)c(CCCCC(=O)NC[C@H](O)[C@@H](O)[C@H](O)[C@H](O)CO)cc2Cl)CC1 [Compound I-133, 5-{2,5-dichloro-4-[({1-[4-(2-methoxyphenyl)pyridin-3-yl]cyclopropyl}amino)methyl]phenyl}-N-[(2S,3R,4R,5R)-2,3,4,5,6-pentahydroxyhexyl]pentanamide]
3 | < 100 nM | CCS(=O)(=O)CCN(CCCC(C)c1ccc(C)c(CNC2(c3cnccc3-c3ccccc3OC3CC3)CC2)c1)C(=O)[C@@H](O)[C@@H](O)[C@H](O)[C@@H](O)CO (stereo partly drawn) [Compound I-307, (2S,3S,4R,5S)-N-(4-{3-[({1-[4-(2-cyclopropoxyphenyl)pyridin-3-yl]cyclopropyl}amino)methyl]-4-methylphenyl}pentyl)-N-[2-(ethanesulfonyl)ethyl]-2,3,4,5,6-pentahydroxyhexanamide]
4 | 126 to 1000 nM | COc1ccccc1-c1ccncc1C1(NCc2cc(Cl)c(CCCCC(=O)N(C)C[C@H](O)[C@@H](O)[C@H](O)[C@H](O)CO)cc2Cl)CC1 [Compound I-134, 5-{2,5-dichloro-4-[({1-[4-(2-methoxyphenyl)pyridin-3-yl]cyclopropyl}amino)methyl]phenyl}-N-methyl-N-[(2S,3R,4R,5R)-2,3,4,5,6-pentahydroxyhexyl]pentanamide]
5 | < 100 nM | CC(CCCCC(=O)NC[C@H](O)[C@@H](O)[C@H](O)[C@H](O)CO)c1ccc(Cl)c(CNC2(c3cnccc3-c3ccccc3OC3CC3)CC2)c1 (stereo partly drawn) [Compound I-317, 6-{4-chloro-3-[({1-[4-(2-cyclopropoxyphenyl)pyridin-3-yl]cyclopropyl}amino)methyl]phenyl}-N-[(2S,3R,4R,5R)-2,3,4,5,6-pentahydroxyhexyl]heptanamide]
6 | < 100 nM | O=C(NCCCCNS(=O)(=O)c1ccc(Cl)c(COC2(c3cnccc3-c3ccccc3OC3CC3)CC2)c1)N[C@@H](CO)[C@@H](O)[C@H](O)[C@H](O)CO (stereo in doubt) [Compound I-410, 1-{4-[4-chloro-3-({1-[4-(2-cyclopropoxyphenyl)pyridin-3-yl]cyclopropoxy}methyl)benzenesulfonamido]butyl}-3-[(2S,3R,4S,5R)-1,3,4,5,6-pentahydroxyhexan-2-yl]urea]
7 | < 100 nM | CS(=O)(=O)CCN(CCCCSc1ccc(Cl)c(COC2(c3cnccc3-c3ccccc3OC3CC3)CC2)c1)C[C@H](O)[C@@H](O)[C@H](O)[C@H](O)CO [Compound I-613, (2R,3R,4R,5S)-6-[(4-{[4-chloro-3-({1-[4-(2-cyclopropoxyphenyl)pyridin-3-yl]cyclopropoxy}methyl)phenyl]sulfanyl}butyl)(2-methanesulfonylethyl)amino]hexane-1,2,3,4,5-pentol]
8 | < 100 nM | CS(=O)(=O)CCN(CCCCCSc1ccc(Cl)c(COC2(c3cnccc3-c3ccccc3OC3CC3)CC2)c1)C(=O)[C@@H](O)[C@@H](O)[C@H](O)[C@@H](O)CO [Compound I-603, (2S,3S,4R,5S)-N-(5-{[4-chloro-3-({1-[4-(2-cyclopropoxyphenyl)pyridin-3-yl]cyclopropoxy}methyl)phenyl]sulfanyl}pentyl)-2,3,4,5,6-pentahydroxy-N-(2-methanesulfonylethyl)hexanamide]
9 | < 100 nM | CC(CCCN(CCS(C)(=O)=O)C(=O)[C@@H](O)[C@@H](O)[C@H](O)[C@@H](O)CO)c1ccc(Cl)c(COC2(c3cnccc3-c3ccccc3OC3CC3)CC2)c1 (stereo partly drawn) [Compound I-309, (2S,3S,4R,5S)-N-(4-[4-chloro-3-({1-[4-(2-cyclopropoxyphenyl)pyridin-3-yl]cyclopropoxy)methyl)phenyl]pentyl}-2,3,4,5,6-pentahydroxy-N-(2-methanesulfonylethyl)hexanamide]
10 | < 100 nM | CC(CCCC(=O)N(C[C@@H](O)[C@H](O)[C@@H](O)[C@@H](O)CO)CC(C)(C)CO)c1ccc(Cl)c(CNC2(c3cnccc3-c3ccccc3OC3CC3)CC2)c1 (stereo partly drawn) [Compound I-341, 5-{4-chloro-3-[({1-[4-(2-cyclopropoxyphenyl)pyridin-3-yl]cyclopropyl}amino)methyl]phenyl}-N-(3-hydroxy-2,2-dimethylpropyl)-N-[(2R,3S,4S,5S)-2,3,4,5,6-pentahydroxyhexyl]hexanamide]
11 | < 100 nM | FC(F)(F)c1ccc(Cl)c(COC2(c3cnccc3-c3ccccc3OC3CC3)CC2)c1 [Compound I-52, 3-(1-{[2-chloro-5-(trifluoromethyl)phenyl]methoxy}cyclopropyl)-4-(2-cyclopropoxyphenyl)pyridine]
12 | < 100 nM | CCN(CCCCNC(=O)N[C@@H](CO)[C@@H](O)[C@H](O)[C@H](O)CO)S(=O)(=O)c1ccc(Cl)c(COC2(c3cnccc3-c3ccccc3OC3CC3)CC2)c1 [Compound I-465, 1-{4-[N-ethyl4-chloro-3-({1-[4-(2-cyclopropoxyphenyl)pyridin-3-yl]cyclopropoxy}methyl)benzenesulfonamido]butyl}-3-[(2S,3R,4S,5R)-1,3,4,5,6-pentahydroxyhexan-2-yl]urea]
13 | < 100 nM | C[C@@H](CCCC(=O)NC[C@H](O)[C@@H](O)[C@H](O)[C@H](O)CO)c1ccc(Cl)c(CNC2(c3cnccc3-c3ccccc3OC3CC3)CC2)c1 (single isomer, unassigned) [Compound I-314]
14 | < 100 nM | Cc1ccc(C(C)CCCC(=O)N(CC(N)=O)C[C@H](O)[C@@H](O)[C@H](O)[C@H](O)CO)cc1CNC1(c2cnccc2-c2ccccc2OC2CC2)CC1 (stereo partly drawn) [Compound I-356, N-(carbamoylmethyl)-5-{3-[({1-[4-(2-cyclopropoxyphenyl)pyridin-3-yl]cyclopropyl}amino)methyl]-4-methylphenyl}-N-[(2S,3R,4R,5R)-2,3,4,5,6-pentahydroxyhexyl]hexanamide]
15 | < 100 nM | CCN(C[C@H](O)[C@@H](O)[C@H](O)[C@H](O)CO)C(=O)CCCC(C)c1ccc(Cl)c(COC2(c3cnccc3-c3ccccc3OC3CC3)CC2)c1 (stereo partly drawn) [Compound I-373, 5-[4-chloro-3-({1-[4-(2-cyclopropoxyphenyl)pyridin-3-yl]cyclopropoxy}methyl)phenyl]-N-ethyl-N-[(2S,3R,4R,5R)-2,3,4,5,6-pentahydroxyhexyl]hexanamide]
16 | < 100 nM | Cc1ccc(C(CO)CCCNC(=O)[C@@H](O)[C@@H](O)[C@H](O)[C@@H](O)CO)cc1CNC1(c2cnccc2-c2ccccc2OC2CC2)CC1 (stereo partly drawn) [Compound I-386, (2S,3S,4R,5S)-N-(4-{3-[({1-[4-(2-cyclopropoxyphenyl)pyridin-3-yl]cyclopropyl}amino)methyl]-4-methylphenyl}-5-hydroxypentyl)-2,3,4,5,6-pentahydroxyhexanamide]
17 | < 100 nM | CCS(=O)(=O)CCN(CCCC(C)c1ccc(Cl)c(CNC2(c3cnccc3-c3ccccc3OC3CC3)CC2)c1)C(=O)[C@@H](O)[C@@H](O)[C@H](O)[C@@H](O)CO (stereo partly drawn) [Compound I-293, (2S,3S,4R,5S)-N-(4-{4-chloro-3-[({1-[4-(2-cyclopropoxyphenyl)pyridin-3-yl]cyclopropyl}amino)methyl]phenyl}pentyl)-N-[2-(ethanesulfonyl)ethyl]-2,3,4,5,6-pentahydroxyhexanamide]
